Test results as given in ChEMBL document CHEMBL4152385, “Synthesis, Receptor Affinity, and Antiallodynic Activity of Spirocyclic σ Receptor Ligands with Exocyclic Amino Moiety” (J Med Chem, 2018).
The source made the active and inactive calls. The calls are words filed in the database; no cut-off is given here.

Tests used:
[1] = target: Sigma non-opioid intracellular receptor 1 (Cavia porcellus, UniProt Q60492); test: Displacement of [3H]-(+)-pentazocine from sigma1 receptor in guinea pig brain cortex membranes incubated for 120 mins by scintillation counting method; format: cell membranes
[2] = target: T1, Sigma intracellular receptor 2 (Rattus norvegicus, UniProt Q5U3Y7); test: Displacement of [3H]-DTG from sigma2 receptor in rat liver membranes; format: cell membranes, Membrane
T1 sequence (Q5U3Y7 whole entry): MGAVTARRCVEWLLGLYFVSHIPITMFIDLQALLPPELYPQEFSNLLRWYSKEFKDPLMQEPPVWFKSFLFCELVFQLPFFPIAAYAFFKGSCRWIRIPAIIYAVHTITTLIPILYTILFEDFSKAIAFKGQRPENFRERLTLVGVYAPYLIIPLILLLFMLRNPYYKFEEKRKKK

[3] = target: T1, Sigma intracellular receptor 2; test: Displacement of [3H]-di-o-tolylguanidine from sigma2 receptor in rat liver membranes incubated for 120 mins by scintillation counting method; format: cell membranes, Membrane
[4] = Selectivity ratio of Ki for sigma2 receptor in rat liver membranes to Ki for sigma1 receptor in guinea pig brain cortex membranes; format: cell membranes
[5] = target: T2, 5-hydroxytryptamine receptor 1A (Homo sapiens) (UniProt P08908); test: Inhibition of 5-HT1A receptor (unknown origin) at 1 uM relative to control
T2 sequence (whole entry): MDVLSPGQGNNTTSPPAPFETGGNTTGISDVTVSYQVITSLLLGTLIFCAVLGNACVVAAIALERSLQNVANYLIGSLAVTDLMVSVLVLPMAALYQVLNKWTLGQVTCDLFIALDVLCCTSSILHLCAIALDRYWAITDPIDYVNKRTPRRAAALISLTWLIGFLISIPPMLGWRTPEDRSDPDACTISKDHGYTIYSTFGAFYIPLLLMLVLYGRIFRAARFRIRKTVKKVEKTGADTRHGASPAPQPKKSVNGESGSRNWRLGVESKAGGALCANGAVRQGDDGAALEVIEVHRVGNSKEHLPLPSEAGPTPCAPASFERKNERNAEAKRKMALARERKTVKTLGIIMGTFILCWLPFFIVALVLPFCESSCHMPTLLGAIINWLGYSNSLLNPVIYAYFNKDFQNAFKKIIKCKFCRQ

[6] = target: Sodium-dependent dopamine transporter (Homo sapiens) (UniProt Q01959); test: Inhibition of DAT (unknown origin) at 1 uM relative to control
[7] = Displacement of [3H]-(+)-MK-801 from NMDA PCP binding site in pig brain cortex membrane incubated for 120 mins by scintillation counting method; format: cell membranes, Sus scrofa
[8] = target: Histamine H1 receptor (Homo sapiens) (UniProt P35367); test: Inhibition of histamine H1 receptor (unknown origin) at 1 uM relative to control
[9] = target: 5-hydroxytryptamine receptor 2B (Homo sapiens) (UniProt P41595); test: Inhibition of 5-HT2B receptor (unknown origin) at 1 uM relative to control
[10] = target: Sodium-dependent noradrenaline transporter (Homo sapiens) (UniProt P23975); test: Inhibition of NET (unknown origin) at 1 uM relative to control
[11] = target: Sodium-dependent serotonin transporter (Homo sapiens) (UniProt P31645); test: Inhibition of SERT (unknown origin) at 1 uM relative to control
[12] = target: Glutamate receptor ionotropic, NMDA 2B (Homo sapiens, UniProt Q13224); test: Displacement of [3H]ifenprodil from GluN2B (unknown origin) expressed in mouse L(tk-) cell membranes incubated for 120 mins by scintillation counting method
[13] = Stability in pH 2 aqueous HCl solution assessed as parent compound remaining after 24 hrs by HPLC; format: physicochemical; conditions: buffer, pH 2, 24 h
[14] = target: T3, Alpha-1A adrenergic receptor (Homo sapiens) (UniProt P35348); test: Inhibition of alpha-1A adrenergic receptor (unknown origin) at 1 uM relative to control
T3 sequence (whole entry): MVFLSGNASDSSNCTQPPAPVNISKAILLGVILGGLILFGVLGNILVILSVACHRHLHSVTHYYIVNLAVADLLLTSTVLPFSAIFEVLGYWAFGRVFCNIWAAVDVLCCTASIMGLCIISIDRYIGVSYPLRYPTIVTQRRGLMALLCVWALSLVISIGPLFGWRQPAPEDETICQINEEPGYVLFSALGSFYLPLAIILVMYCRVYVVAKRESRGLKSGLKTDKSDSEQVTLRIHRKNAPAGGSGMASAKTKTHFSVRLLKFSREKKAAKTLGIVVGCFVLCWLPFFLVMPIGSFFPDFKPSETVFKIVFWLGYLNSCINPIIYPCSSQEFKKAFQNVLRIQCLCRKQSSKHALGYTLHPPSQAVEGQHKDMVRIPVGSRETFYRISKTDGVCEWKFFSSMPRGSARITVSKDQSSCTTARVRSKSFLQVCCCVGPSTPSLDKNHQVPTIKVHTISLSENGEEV

[15] = Stability in pH 7.4 phosphate buffer assessed as parent compound remaining after 24 hrs by HPLC; format: physicochemical; conditions: pH 7.4, 24 h
[16] = target: Kappa-type opioid receptor (Cavia porcellus, UniProt P41144); test: Displacement of [3H]U-69,593 from KOR in guinea pig brain membranes incubated for 120 mins by scintillation counting method; format: cell membranes, Membrane
[17] = target: Voltage-gated inwardly rectifying potassium channel KCNH2 (Homo sapiens, UniProt Q12809); test: Inhibition of human ERG expressed in CHO cells by automated patch clamp assay; format: cell-based
[18] = target: Mu-type opioid receptor (Cavia porcellus, UniProt P97266); test: Displacement of [3H]DAMGO from MOR in guinea pig brain membranes incubated for 120 mins by scintillation counting method; format: cell membranes, Membrane
[19] = tested on: Mus musculus; test: Antiallodynic activity in CD1 mouse model of capsaicin-induced mechanical allodynia assessed as effect on paw withdrawal latency time at 2 to 64 mg/kg, sc administered 30 mins before capsaicin addition and measured at 30 secs intervals; format: functional, organism-based
[20] = tested on: Mus musculus; test: Antiallodynic activity in CD1 mouse model of capsaicin-induced mechanical allodynia assessed as effect on paw withdrawal latency time at 4 to 64 mg/kg, sc administered 30 mins before capsaicin addition and measured at 30 secs intervals; format: functional, organism-based
[21] = tested on: Mus musculus; test: Antiallodynic activity in CD1 mouse model of capsaicin-induced mechanical allodynia assessed as effect on paw withdrawal latency time at 4 to 32 mg/kg, sc administered 5 mins after sigma1 receptor agonist PRE-084 dosing followed by capsaicin addition and measured after 30 mins post compound dose; format: functional, organism-based
[22] = target: Delta-type opioid receptor (Rattus norvegicus, UniProt P33533); test: Displacement of [3H]DPDPE from DOR in rat brain membranes incubated for 120 mins by scintillation counting method; format: cell membranes, Membrane
[23] = tested on: Mus musculus; test: Antiallodynic activity in CD1 mouse model of capsaicin-induced mechanical allodynia assessed as effect on paw withdrawal latency time at 32 mg/kg, sc administered 5 mins after sigma1 receptor agonist PRE-084 dosing followed by capsaicin addition and measured after 30 mins post compound dose; format: functional, organism-based
[24] = in vitro; conditions: mouse, liver microsomes
Description: Metabolic stability in mouse liver microsomes assessed as compound remaining at 25 uM after 1 hr in presence of NADPH by LC-MS analysis

Sequence of Sigma non-opioid intracellular receptor 1 (Q60492 whole entry): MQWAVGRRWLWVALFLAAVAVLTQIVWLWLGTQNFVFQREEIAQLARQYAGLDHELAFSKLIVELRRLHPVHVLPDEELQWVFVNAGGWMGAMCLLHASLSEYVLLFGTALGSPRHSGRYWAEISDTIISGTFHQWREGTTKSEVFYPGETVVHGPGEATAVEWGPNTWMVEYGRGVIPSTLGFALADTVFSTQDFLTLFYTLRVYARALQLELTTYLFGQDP
Sequence of Glutamate receptor ionotropic, NMDA 2B (Q13224 whole entry): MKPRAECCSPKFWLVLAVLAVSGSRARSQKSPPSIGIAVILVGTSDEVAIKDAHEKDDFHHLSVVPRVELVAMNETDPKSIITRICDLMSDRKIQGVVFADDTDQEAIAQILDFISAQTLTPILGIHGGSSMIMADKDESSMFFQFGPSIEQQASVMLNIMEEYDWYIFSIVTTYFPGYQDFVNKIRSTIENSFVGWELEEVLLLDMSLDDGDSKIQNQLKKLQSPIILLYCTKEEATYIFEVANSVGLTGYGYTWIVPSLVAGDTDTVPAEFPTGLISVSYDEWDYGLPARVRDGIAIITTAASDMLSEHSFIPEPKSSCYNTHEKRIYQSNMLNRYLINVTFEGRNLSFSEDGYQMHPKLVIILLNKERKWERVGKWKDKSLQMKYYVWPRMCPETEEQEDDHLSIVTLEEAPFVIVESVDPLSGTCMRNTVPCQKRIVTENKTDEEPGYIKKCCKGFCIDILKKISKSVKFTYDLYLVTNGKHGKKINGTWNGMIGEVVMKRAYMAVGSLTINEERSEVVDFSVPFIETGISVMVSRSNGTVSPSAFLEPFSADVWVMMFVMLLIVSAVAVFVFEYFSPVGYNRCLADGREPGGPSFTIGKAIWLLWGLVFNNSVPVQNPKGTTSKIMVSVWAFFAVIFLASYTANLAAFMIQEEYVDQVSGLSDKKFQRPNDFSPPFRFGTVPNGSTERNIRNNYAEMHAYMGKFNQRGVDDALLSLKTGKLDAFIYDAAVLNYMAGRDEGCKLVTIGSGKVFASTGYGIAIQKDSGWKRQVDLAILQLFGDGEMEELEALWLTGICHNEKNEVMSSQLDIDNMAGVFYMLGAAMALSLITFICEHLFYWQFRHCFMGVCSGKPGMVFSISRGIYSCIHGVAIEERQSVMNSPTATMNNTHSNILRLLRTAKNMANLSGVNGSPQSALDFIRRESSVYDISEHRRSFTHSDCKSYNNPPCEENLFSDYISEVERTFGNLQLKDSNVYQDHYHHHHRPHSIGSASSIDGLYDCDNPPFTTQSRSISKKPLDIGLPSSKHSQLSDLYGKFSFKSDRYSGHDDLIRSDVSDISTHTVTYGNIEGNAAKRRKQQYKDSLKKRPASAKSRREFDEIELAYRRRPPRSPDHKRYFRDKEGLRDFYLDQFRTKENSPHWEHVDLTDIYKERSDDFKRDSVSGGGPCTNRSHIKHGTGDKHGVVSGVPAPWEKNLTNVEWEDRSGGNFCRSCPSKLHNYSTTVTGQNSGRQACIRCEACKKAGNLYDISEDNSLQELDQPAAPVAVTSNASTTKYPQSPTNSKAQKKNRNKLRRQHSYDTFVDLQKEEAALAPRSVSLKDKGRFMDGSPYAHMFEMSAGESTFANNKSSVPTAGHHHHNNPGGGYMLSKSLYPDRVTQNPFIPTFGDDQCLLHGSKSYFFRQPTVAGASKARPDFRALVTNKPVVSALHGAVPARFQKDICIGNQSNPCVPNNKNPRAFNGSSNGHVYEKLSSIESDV
Sequence of Sodium-dependent noradrenaline transporter (Homo sapiens) (P23975 whole entry): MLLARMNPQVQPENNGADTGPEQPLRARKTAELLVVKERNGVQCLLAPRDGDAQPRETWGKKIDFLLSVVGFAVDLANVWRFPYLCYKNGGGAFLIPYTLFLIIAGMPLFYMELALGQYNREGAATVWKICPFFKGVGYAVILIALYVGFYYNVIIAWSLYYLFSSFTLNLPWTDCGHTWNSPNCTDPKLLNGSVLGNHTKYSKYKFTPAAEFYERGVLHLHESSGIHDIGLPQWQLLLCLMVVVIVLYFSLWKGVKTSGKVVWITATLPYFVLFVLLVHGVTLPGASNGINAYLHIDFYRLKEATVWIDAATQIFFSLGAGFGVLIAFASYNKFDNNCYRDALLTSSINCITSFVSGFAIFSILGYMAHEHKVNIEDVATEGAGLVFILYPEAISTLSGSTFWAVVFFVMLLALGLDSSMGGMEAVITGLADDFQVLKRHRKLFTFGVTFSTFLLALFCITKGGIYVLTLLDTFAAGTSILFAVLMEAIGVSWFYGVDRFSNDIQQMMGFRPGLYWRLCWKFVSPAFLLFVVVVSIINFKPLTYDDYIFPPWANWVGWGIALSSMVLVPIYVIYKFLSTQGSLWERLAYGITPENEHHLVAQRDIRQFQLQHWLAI
Sequence of Histamine H1 receptor (Homo sapiens) (P35367 whole entry): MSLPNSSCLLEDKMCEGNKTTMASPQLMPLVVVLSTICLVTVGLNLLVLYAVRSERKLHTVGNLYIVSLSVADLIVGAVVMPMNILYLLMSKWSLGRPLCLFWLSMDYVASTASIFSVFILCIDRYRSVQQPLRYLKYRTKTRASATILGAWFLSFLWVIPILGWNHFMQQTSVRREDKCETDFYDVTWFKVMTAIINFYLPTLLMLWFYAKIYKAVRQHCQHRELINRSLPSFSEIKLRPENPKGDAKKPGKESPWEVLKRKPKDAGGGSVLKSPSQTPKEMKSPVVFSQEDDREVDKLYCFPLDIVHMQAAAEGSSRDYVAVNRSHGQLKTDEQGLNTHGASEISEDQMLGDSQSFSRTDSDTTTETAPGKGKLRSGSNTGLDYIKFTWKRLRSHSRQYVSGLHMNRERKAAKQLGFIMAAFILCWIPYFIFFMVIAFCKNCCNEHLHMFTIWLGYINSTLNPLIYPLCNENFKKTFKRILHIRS
Sequence of Voltage-gated inwardly rectifying potassium channel KCNH2 (Q12809 whole entry): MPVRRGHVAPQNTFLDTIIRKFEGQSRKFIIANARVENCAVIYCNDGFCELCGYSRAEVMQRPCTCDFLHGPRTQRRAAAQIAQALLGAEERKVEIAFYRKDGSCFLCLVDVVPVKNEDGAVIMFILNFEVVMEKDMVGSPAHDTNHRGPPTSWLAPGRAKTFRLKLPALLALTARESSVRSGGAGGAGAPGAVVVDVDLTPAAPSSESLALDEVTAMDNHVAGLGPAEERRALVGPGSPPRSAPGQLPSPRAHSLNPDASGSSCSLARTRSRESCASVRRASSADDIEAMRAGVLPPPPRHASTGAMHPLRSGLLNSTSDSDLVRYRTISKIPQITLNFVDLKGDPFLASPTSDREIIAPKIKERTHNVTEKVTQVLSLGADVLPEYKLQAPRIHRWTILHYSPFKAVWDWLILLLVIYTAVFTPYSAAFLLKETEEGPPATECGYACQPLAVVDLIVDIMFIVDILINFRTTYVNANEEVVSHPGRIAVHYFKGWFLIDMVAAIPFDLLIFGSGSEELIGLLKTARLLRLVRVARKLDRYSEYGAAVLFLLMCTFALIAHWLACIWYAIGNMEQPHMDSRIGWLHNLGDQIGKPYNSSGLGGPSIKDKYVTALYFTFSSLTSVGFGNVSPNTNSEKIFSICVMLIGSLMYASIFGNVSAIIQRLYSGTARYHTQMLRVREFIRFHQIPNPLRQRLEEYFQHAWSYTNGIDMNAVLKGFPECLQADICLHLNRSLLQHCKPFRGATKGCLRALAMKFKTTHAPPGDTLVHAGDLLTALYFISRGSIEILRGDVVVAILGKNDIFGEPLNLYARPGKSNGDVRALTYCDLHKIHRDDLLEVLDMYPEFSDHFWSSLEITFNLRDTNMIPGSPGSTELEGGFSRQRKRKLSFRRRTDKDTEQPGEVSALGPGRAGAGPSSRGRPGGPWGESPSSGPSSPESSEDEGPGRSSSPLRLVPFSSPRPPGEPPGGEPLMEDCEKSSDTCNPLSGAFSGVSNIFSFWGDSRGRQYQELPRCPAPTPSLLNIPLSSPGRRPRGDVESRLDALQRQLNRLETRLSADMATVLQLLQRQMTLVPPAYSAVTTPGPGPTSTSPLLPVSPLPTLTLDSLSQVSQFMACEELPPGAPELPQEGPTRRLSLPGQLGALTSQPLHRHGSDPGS
Sequence of 5-hydroxytryptamine receptor 2B (Homo sapiens) (P41595 whole entry): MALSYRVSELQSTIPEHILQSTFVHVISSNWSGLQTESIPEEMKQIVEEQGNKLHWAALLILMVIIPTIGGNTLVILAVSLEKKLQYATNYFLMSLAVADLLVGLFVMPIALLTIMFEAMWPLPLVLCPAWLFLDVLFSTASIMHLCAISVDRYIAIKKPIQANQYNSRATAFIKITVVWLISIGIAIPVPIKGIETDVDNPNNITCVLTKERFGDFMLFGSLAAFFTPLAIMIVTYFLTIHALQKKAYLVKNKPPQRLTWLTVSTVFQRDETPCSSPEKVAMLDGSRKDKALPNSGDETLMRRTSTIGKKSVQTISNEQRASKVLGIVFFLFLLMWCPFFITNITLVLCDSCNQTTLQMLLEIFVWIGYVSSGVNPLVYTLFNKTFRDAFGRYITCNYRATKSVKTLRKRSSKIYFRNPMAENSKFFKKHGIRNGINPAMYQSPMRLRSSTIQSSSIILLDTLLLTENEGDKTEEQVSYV
Sequence of Sodium-dependent dopamine transporter (Homo sapiens) (Q01959 whole entry): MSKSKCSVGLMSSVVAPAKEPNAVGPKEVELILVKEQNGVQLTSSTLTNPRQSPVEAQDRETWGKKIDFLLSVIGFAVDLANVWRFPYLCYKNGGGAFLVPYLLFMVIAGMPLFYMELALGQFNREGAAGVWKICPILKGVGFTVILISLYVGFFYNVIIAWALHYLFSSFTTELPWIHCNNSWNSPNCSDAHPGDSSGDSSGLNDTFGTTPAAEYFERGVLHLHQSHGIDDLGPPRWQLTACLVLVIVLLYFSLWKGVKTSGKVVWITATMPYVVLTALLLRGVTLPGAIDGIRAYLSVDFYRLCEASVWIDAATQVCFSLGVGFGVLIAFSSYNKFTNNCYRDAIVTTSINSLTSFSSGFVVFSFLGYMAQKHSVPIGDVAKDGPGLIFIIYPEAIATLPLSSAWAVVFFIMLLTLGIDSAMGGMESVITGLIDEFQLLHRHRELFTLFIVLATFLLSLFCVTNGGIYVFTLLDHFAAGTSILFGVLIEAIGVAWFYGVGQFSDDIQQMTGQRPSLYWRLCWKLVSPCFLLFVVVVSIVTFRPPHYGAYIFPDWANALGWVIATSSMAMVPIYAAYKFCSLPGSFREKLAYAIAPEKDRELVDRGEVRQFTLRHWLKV

| Compound | Ki [1] [nM] | Ki [3] [nM] | further results |
| --- | --- | --- | --- |
| OCC[C@H]1Cc2ccccc2C2(CCC(N3CCN(C4CCCCC4)CC3)CC2)O1 (some centres undefined) | 28 | – | – |
| COc1cc2c(cc1OC)CN(CCCCNC(=O)c1cc(Br)cc(OC)c1OC)CC2 | – | 8.2 | Ki [2]: 8.2 nM |
| CCOC(=O)C[C@@H]1Cc2ccccc2C2(CCC(NCc3ccc(C)cc3C)CC2)O1 (some centres undefined) | – | 231 | – |
| CO[C@@H]1Cc2ccccc2C2(CCC(NCc3ccccc3)CC2)O1 (some centres undefined) | 538 | – | – |
| COc1cc2c(cc1OC)CN(C1CCC3(CC1)O[C@H](O)Cc1ccccc13)CC2 (some centres undefined) | 583 | 99 | – |
| FCC[C@H]1Cc2ccccc2C2(CCC(NC3CCc4ccccc4CC3)CC2)O1 (some centres undefined) | 198 | 527 | – |
| COc1cc2c(cc1OC)CN(C1CCC3(CC1)O[C@H](OC)Cc1ccccc13)CC2 (some centres undefined) | 639 | 58 | – |
| CO[C@@H]1Cc2ccccc2C2(CCC(NCc3ccc(C)cc3C)CC2)O1 (some centres undefined) | 736 | 7.6 | – |
| CCOC(=O)C[C@H]1Cc2ccccc2C2(CCC(NCc3ccc(C)cc3C)CC2)O1 (some centres undefined) | 547 | 159 | – |
| Cc1ccc(CNC2CCC3(CC2)O[C@H](O)Cc2ccccc23)c(C)c1 (some centres undefined) | 349 | 181 | – |
| O[C@@H]1Cc2ccccc2C2(CCC(N3CCN(C4CCCCC4)CC3)CC2)O1 (some centres undefined) | 77 | – | – |
| CO[C@H]1Cc2ccccc2C2(CCC(NCc3ccccc3)CC2)O1 (some centres undefined) | 158 | – | – |
| CO[C@H]1Cc2ccccc2C2(CCC(N3CCN(C4CCCCC4)CC3)CC2)O1 (some centres undefined) | 4.4 | 213 | Ratio Ki [4]: 50 |
| Cc1ccc(CNC2CCC3(CC2)O[C@@H](CCO)Cc2ccccc23)c(C)c1 (some centres undefined) | 548 | 179 | – |
| Cc1ccc(CNC2CCC3(CC2)O[C@@H](O)Cc2ccccc23)c(C)c1 (some centres undefined) | – | 66 | – |
| CO[C@H]1Cc2ccccc2C2(CCC(NCCCc3cn(-c4ccc(F)cc4)c4ccccc34)CC2)O1 (some centres undefined) | 635 | – | – |
| CO[C@@H]1Cc2ccccc2C2(CCC(N3CCN(C4CCCCC4)CC3)CC2)O1 (some centres undefined) | 6.3 | 62 | Ratio Ki [4]: 10 |

| Compound | Ki [1] [nM] | Ki [3] [nM] | further results |
| --- | --- | --- | --- |
| Cc1ccc(CNC2CCC3(CC2)O[C@@H](CCF)Cc2ccccc23)c(C)c1 (some centres undefined) | 966 | – | – |
| COc1cc2c(cc1OC)CN(C1CCC3(CC1)O[C@@H](OC)Cc1ccccc13)CC2 (some centres undefined) | – | 105 | – |
| CCOC(=O)C[C@H]1Cc2ccccc2C2(CCC(N3CCc4cc(OC)c(OC)cc4C3)CC2)O1 (some centres undefined) | – | 343 | – |
| O[C@H]1Cc2ccccc2C2(CCC(N3CCN(C4CCCCC4)CC3)CC2)O1 (some centres undefined) | 47 | 27 | inhibition [5]: 55%; inhibition [6]: < 50%; Ki [7]: > 1000 nM; inhibition [8]: 76%; inhibition [9]: < 50%; inhibition [10]: < 50%; inhibition [11]: < 50%; Ki [12]: 34 nM; Stability [13]: Stable; inhibition [14]: < 50%; Stability [15]: Stable; Ki [16]: 781 nM; IC50 [17]: 3210 nM |
| COc1cc2c(cc1OC)CN(C1CCC3(CC1)O[C@H](CCF)Cc1ccccc13)CC2 (some centres undefined) | 807 | – | – |
| CCOC(=O)C[C@@H]1Cc2ccccc2C2(CCC(N3CCN(C4CCCCC4)CC3)CC2)O1 (some centres undefined) | – | 355 | – |
| OCC[C@@H]1Cc2ccccc2C2(CCC(N3CCN(C4CCCCC4)CC3)CC2)O1 (some centres undefined) | 61 | 172 | – |
| FCC[C@@H]1Cc2ccccc2C2(CCC(NC3CCc4ccccc4CC3)CC2)O1 (some centres undefined) | 667 | 305 | – |
| COc1cccc2c1CCCC2CCCN1CCN(C2CCCCC2)CC1 (centres undefined) | – | 0.68 | Ki [2]: 0.68 nM |
| CCOC(=O)C[C@H]1Cc2ccccc2C2(CCC(N3CCN(C4CCCCC4)CC3)CC2)O1 (some centres undefined) | – | 51 | inhibition [5]: 68%; inhibition [6]: < 50%; Ki [7]: > 1000 nM; inhibition [8]: 98%; Ki [18]: 458 nM; inhibition [9]: < 50%; inhibition [10]: < 50%; inhibition [11]: < 50%; Ki [12]: 54 nM; Stability [13]: Stable; inhibition [14]: 78%; Stability [15]: Stable; IC50 [17]: 1750 nM |
| CO[C@@H]1Cc2ccccc2C2(CCC(NC3CCc4ccccc4CC3)CC2)O1 (some centres undefined) | – | 49 | – |
| CN1CCN(CCc2ccc(Cl)c(Cl)c2)CC1 | – | – | Activity [19]: Active; Activity [20]: Active |
| Cc1ccc(CNC2CCC3(CC2)O[C@H](CCO)Cc2ccccc23)c(C)c1 (some centres undefined) | – | 381 | – |
| CO[C@H]1Cc2ccccc2C2(CCC(NCc3ccc(C)cc3C)CC2)O1 (some centres undefined) | – | 54 | – |
| CO[C@H]1Cc2ccccc2C2(CCC(NC3CCc4ccccc4CC3)CC2)O1 (some centres undefined) | 265 | 77 | – |
| FCC[C@H]1Cc2ccccc2C2(CCC(N3CCN(C4CCCCC4)CC3)CC2)O1 (some centres undefined) | 19 | 432 | Ki [7]: > 1000 nM; Ki [18]: 434 nM; Activity [19]: Active; Ki [12]: 31 nM; Stability [13]: Stable; Activity [21]: inactive; Activity [20]: Active; Ki [22]: 647 nM; Stability [15]: Stable; Activity [23]: inactive; remaining at 1 h, 25 µM [24]: 69.5% |
